Results reported in ChEMBL document CHEMBL5329204, “Design, synthesis and biological evaluation of EGFR kinase inhibitors that spans the orthosteric and allosteric sites” (Bioorg Med Chem, 2023).
pIC50: −log10 of the molar value.

Columns and labels:
[1] = Inhibition of EGFR L858R/T790M/C797S triple mutant in mouse BaF3 cells assessed as cell growth inhibition measured after 72 hrs by CellTiter-Glo assay; type: cell-based; details: BaF3, 72 h
[2] = test system: NCI-H1975; test: Anticancer activity against human NCI-H1975 cells assessed as cell growth inhibition measured after 72 hrs by MTT assay; type: functional, cell-based; details: NCI-H1975, 72 h
[3] = Inhibition of EGFR Del19/T790M/C797S triple mutant in mouse BaF3 cells assessed as cell growth inhibition measured after 72 hrs by CellTiter-Glo assay; type: cell-based; details: BaF3, 72 h
[4] = Inhibition of EGFR L858R/T790M double mutant in mouse BaF3 cells assessed as cell growth inhibition measured after 72 hrs by CellTiter-Glo assay; type: cell-based; details: BaF3, 72 h
[5] = test system: A549; test: Anticancer activity against human A549 cells assessed as cell growth inhibition measured after 72 hrs by MTT assay; type: functional, cell-based; details: A549, 72 h
[6] = test system: NCI-H1975; test: Potency index, ratio of gefitinib IC50 to test compound IC50 for anticancer activity against human NCI-H1975 cells assessed as cell growth inhibition measured after 72 hrs by MTT assay; type: functional

| pIC50 [2] | pIC50 [5] | SMILES | pIC50 [1] | pIC50 [3] | pIC50 [4] | Ratio IC50 [6] |
| --- | --- | --- | --- | --- | --- | --- |
| 5.20 | – | COc1cc2ncnc(N(C)c3ccc(NC(=O)C(c4ccccc4)N4Cc5ccccc5C4=O)cc3)c2cc1OCCCN1CCOCC1 (stereo not drawn) | 5.07 | – | – | – |
| < 5.00 | – | O=C(Nc1nccs1)C(c1ccccc1)N1Cc2ccccc2C1=O (stereo not drawn) | < 5.00 | < 5.00 | – | – |
| 5.29 | – | COc1cc2ncnc(NNc3ccc(NC(=O)C(c4ccccc4)N4Cc5ccccc5C4=O)cc3)c2cc1OCCCN1CCOCC1 (stereo not drawn) | 5.11 | – | – | – |
| < 4.70 | < 4.70 | CNC(=O)CN1CCC(Oc2cc3c(Nc4ccc(NC(=O)C(c5ccccc5)N5Cc6ccccc6C5=O)cc4)ncnc3cc2OC)CC1 (stereo not drawn) | < 4.70 | < 4.70 | 5.88 | – |
| 5.06 | – | COc1cc2ncnc(NCc3cccc(NC(=O)C(c4ccccc4)N4Cc5ccccc5C4=O)c3)c2cc1OCCCN1CCOCC1 (stereo not drawn) | 5.05 | – | – | – |
| 5.77 | < 4.70 | COc1cc2ncnc(Nc3ccc(NC(=O)C(c4ccccc4)N4Cc5ccccc5C4=O)cc3)c2cc1OCCCN1CCOCC1 (stereo not drawn) | 5.26 | 5.09 | 5.84 | 6 |
| 4.96 | – | COc1cc2ncnc(NCc3ccc(NC(=O)C(c4ccccc4)N4Cc5ccccc5C4=O)cc3)c2cc1OCCCN1CCOCC1 (stereo not drawn) | 5.44 | 5.46 | – | – |
| < 4.70 | – | COc1cc2ncnc(Nc3ccc(C(=O)NNC(=O)C(c4ccccc4)N4Cc5ccccc5C4=O)cc3)c2cc1OCCCN1CCOCC1 (stereo not drawn) | < 4.70 | – | – | – |
| 5.03 | – | COc1cc2ncnc(Nc3cccc(NC(=O)C(c4ccccc4)N4Cc5ccccc5C4=O)c3)c2cc1OCCCN1CCOCC1 (stereo not drawn) | 5.04 | – | – | – |
| < 4.70 | – | COc1cc2ncnc(NNC(=O)c3cccc(NC(=O)C(c4ccccc4)N4Cc5ccccc5C4=O)c3)c2cc1OCCCN1CCOCC1 (stereo not drawn) | < 4.70 | – | – | – |
| < 4.70 | < 4.70 | CC(C)(O)CC(=O)NCCn1ccc2ncnc(Nc3ccc(NC(=O)C(c4ccccc4)N4Cc5ccccc5C4=O)cc3)c21 (stereo not drawn) | < 4.70 | < 4.70 | < 4.70 | – |
| 5.05 | – | COc1cc2ncnc(Nc3ccc(NC(=O)C(c4ccccc4)N4Cc5ccccc5C4=O)cc3F)c2cc1OCCCN1CCOCC1 (stereo not drawn) | 5.21 | – | – | – |
| < 4.70 | – | COc1cc2ncnc(NNC(=O)c3ccc(NC(=O)C(c4ccccc4)N4Cc5ccccc5C4=O)cc3)c2cc1OCCCN1CCOCC1 (stereo not drawn) | < 4.70 | – | – | – |
| – | – | C=CC(=O)Nc1cc(Nc2nccc(-c3cn(C)c4ccccc34)n2)c(OC)cc1N(C)CCN(C)C [OSIMERTINIB] | – | 6.12 | – | – |
| 5.73 | < 4.70 | COCCOc1cc2ncnc(Nc3ccc(NC(=O)C(c4ccccc4)N4Cc5ccccc5C4=O)cc3)c2cc1OCCOC (stereo not drawn) | < 4.70 | < 4.70 | 5.57 | – |
| 5.43 | – | COc1cc2ncnc(Nc3ccc(NC(=O)C(c4ccccc4)N4Cc5ccccc5C4=O)c(F)c3)c2cc1OCCCN1CCOCC1 (stereo not drawn) | 5.23 | – | – | – |
| 4.84 | – | COc1cc2ncnc(Nc3ccc(CNC(=O)C(c4ccccc4)N4Cc5ccccc5C4=O)cc3)c2cc1OCCCN1CCOCC1 (stereo not drawn) | < 4.70 | – | – | – |
